The values that follow come from patent US20140274688A1, “MOLECULES HAVING CERTAIN PESTICIDAL UTILITIES, AND INTERMEDIATES, COMPOSITIONS, AND PROCESSES RELATED THERETO” (DOW AGROSCIENCES LLC, priority 2013, published 2014).

Test [1] relates to Beet Armyworm (Spodoptera exigua) ("BAW"). Put plainly: Bioassay on Beet Armyworm (BAW), 128-well diet tray assay, percent mortality. It is filed as in vivo. Conditions: Spodoptera exigua, read-out: BAW. An excerpt:
(§1) Bioassays on Beet Armyworm (Spodoptera exigua) (“BAW”) and Cabbage Looper (Trichoplusia ni) (“CL”)
(§2) BAW has few effective parasites, diseases, or predators to lower its population. BAW infests many weeds, trees, grasses, legumes, and field crops. In various places, it is of economic concern upon asparagus, cotton, corn, soybeans, tobacco, alfalfa, sugar beets, peppers, tomatoes, potatoes, onions, peas, sunflowers, and citrus, among other plants. The Cabbage Looper is a member of the moth family Noctuidae. It is found throughout the world. It is attacks cabbage, cauliflower, broccoli, Brussel sprouts, tomatoes, cucumbers, potatoes, kale, turnips, mustard, peppers, eggplant, watermelons, melons, squash, cantaloupe, peas, beans, collards, lettuce, spinach, celery, parsley, beets, peas, alfalfa, soybeans, and cotton. This species is very destructive to plants due to its voracious consumption of leaves. In the case of cabbage, however, they feed not only on the wrapper leaves, but also may bore into the developing head. The larvae consume three times their weight in plant material daily. The feeding sites are marked by large accumulations of sticky, wet fecal material.
(§3) Consequently, because of the above factors control of these pests is important.
(§4) Certain molecules disclosed in this document were tested against BAW and CEW using procedures described in the following examples. In the reporting of the results, the “BAW & CL Rating Table” was used (See Table Section).
(§5) Trays were covered with a clear self-adhesive cover and held at 25° C., 14:10 light-dark for five to seven days. Percent mortality was recorded for the larvae in each well; activity in the eight wells was then averaged. The results are indicated in the table entitled “Table ABC: Biological Results” (See Table Section).

The test system of test [2] is Cabbage Looper (Trichoplusia ni) ("CL"). Put plainly: Bioassay on Cabbage Looper (CL), 128-well diet tray assay, percent mortality. Format: in vivo. Conditions: Trichoplusia ni, read-out: CL.
Description: as §1, §2, §3, §4
Bioassays on Cabbage Looper in CL
as §5

Structures are written as SMILES.

As to `Cc1ccc(C(C)C)c(N2C(=O)CS/C2=N\C(=O)NC(C)C(C)c2ccc(-c3ncn(-c4ccc(OC(F)(F)F)cc4)n3)cc2)c1` (stereo not shown) [P66, (Z)-1-(3-(2-isopropyl-5-methylphenyl)-4-oxothiazolidin-2-ylidene)-3-(3-(4-(1-(4-(trifluoromethoxy)phenyl)-1H-1,2,4-triazol-3-yl)phenyl)butan-2-yl)urea], the pest or weed control at 50 µg/cm2 in test [1] and in test [2] was 50 to 100% throughout.

`Cc1ccccc1N1C(=O)CS/C1=N\C(=O)NCCc1cccc(-c2ncn(-c3ccc(OC(F)(F)F)cc3)n2)c1` [P74, (Z)-1-(4-oxo-3-(o-tolyl)thiazolidin-2-ylidene)-3-(3-(1-(4-(trifluoromethoxy)phenyl)-1H-1,2,4-triazol-3-yl)phenethyl)urea]: the pest or weed control at 50 µg/cm2 in test [1] and in test [2] was 50 to 100% in each case.

Take `CCc1ccccc1N1C(=O)CS/C1=N\C(=O)NCCc1cccc(-c2ncn(-c3ccc(OC(F)(F)F)cc3)n2)c1` [P75, (Z)-1-(3-(2-ethylphenyl)-4-oxothiazolidin-2-ylidene)-3-(3-(1-(4-(trifluoromethoxy)phenyl)-1H-1,2,4-triazol-3-yl)phenethyl)urea]: the pest or weed control at 50 µg/cm2 in test [1] and in test [2] was 50 to 100% in each case.

As for `CC(C)c1ccccc1N1C(=O)CS/C1=N\C(=O)NCCc1cccc(-c2ncn(-c3ccc(OC(F)(F)F)cc3)n2)c1` [P76, (Z)-1-(3-(2-isopropylphenyl)-4-oxothiazolidin-2-ylidene)-3-(3-(1-(4-(trifluoromethoxy)phenyl)-1H-1,2,4-triazol-3-yl)phenethyl)urea], the pest or weed control at 50 µg/cm2 in test [1] and in test [2] was 50 to 100% each time.

`CCCc1ccc(C)cc1N1C(=O)CS/C1=N\C(=O)NCCc1cccc(-c2ncn(-c3ccc(OC(F)(F)F)cc3)n2)c1` [P80, (Z)-1-(3-(5-methyl-2-propylphenyl)-4-oxothiazolidin-2-ylidene)-3-(3-(1-(4-(trifluoromethoxy)phenyl)-1H-1,2,4-triazol-3-yl)phenethyl)urea]: the pest or weed control at 50 µg/cm2 in test [1] and in test [2] was 50 to 100% in each case.

Regarding `CCc1cccc(C)c1N1C(=O)CS/C1=N\C(=O)NCCc1cccc(-c2ncn(-c3ccc(OC(F)(F)F)cc3)n2)c1` [P83, (Z)-1-(3-(2-ethyl-6-methylphenyl)-4-oxothiazolidin-2-ylidene)-3-(3-(1-(4-(trifluoromethoxy)phenyl)-1H-1,2,4-triazol-3-yl)phenethyl)urea], the pest or weed control at 50 µg/cm2 in test [1] and in test [2] was 50 to 100% in each case.

For `Cc1ccc(N2C(=O)CS/C2=N\C(=O)NCCc2cccc(-c3ncn(-c4ccc(OC(F)(F)F)cc4)n3)c2)c(C(C)C)c1` [P84, (Z)-1-(3-(2-isopropyl-4-methylphenyl)-4-oxothiazolidin-2-ylidene)-3-(3-(1-(4-(trifluoromethoxy)phenyl)-1H-1,2,4-triazol-3-yl)phenethyl)urea], the pest or weed control at 50 µg/cm2 in test [1] and in test [2] was 50 to 100% in each case.

Turning to `CC(C)c1cc(F)ccc1N1C(=O)CS/C1=N\C(=O)NCCc1cccc(-c2ncn(-c3ccc(OC(F)(F)F)cc3)n2)c1` [P85, (Z)-1-(3-(4-fluoro-2-isopropylphenyl)-4-oxothiazolidin-2-ylidene)-3-(3-(1-(4-(trifluoromethoxy)phenyl)-1H-1,2,4-triazol-3-yl)phenethyl)urea], the pest or weed control at 50 µg/cm2 in test [1] and in test [2] was 50 to 100% throughout.

As to `COc1ccc(N2C(=O)CS/C2=N\C(=O)NCCc2cccc(-c3ncn(-c4ccc(OC(F)(F)F)cc4)n3)c2)c(C)c1` [P87, (Z)-1-(3-(4-methoxy-2-methylphenyl)-4-oxothiazolidin-2-ylidene)-3-(3-(1-(4-(trifluoromethoxy)phenyl)-1H-1,2,4-triazol-3-yl)phenethyl)urea], the pest or weed control at 50 µg/cm2 in test [1] and in test [2] was 50 to 100% throughout.

On to `Cc1ccccc1N1C(=O)CS/C1=N\C(=O)NCCCc1ccc(-c2ncn(-c3ccc(OC(F)(F)F)cc3)n2)cc1` [P92, (Z)-1-(4-oxo-3-(o-tolyl)thiazolidin-2-ylidene)-3-(3-(4-(1-(4-(trifluoromethoxy)phenyl)-1H-1,2,4-triazol-3-yl)phenyl)propyl)urea], for which the pest or weed control at 50 µg/cm2 in test [1] and in test [2] was 50 to 100% in each case.

As for `CCc1ccccc1N1C(=O)CS/C1=N\C(=O)NCCCc1ccc(-c2ncn(-c3ccc(OC(F)(F)F)cc3)n2)cc1` [P93, (Z)-1-(3-(2-ethylphenyl)-4-oxothiazolidin-2-ylidene)-3-(3-(4-(1-(4-(trifluoromethoxy)phenyl)-1H-1,2,4-triazol-3-yl)phenyl)propyl)urea], the pest or weed control at 50 µg/cm2 in test [1] and in test [2] was 50 to 100% in each case.

As for `CC(C)c1ccccc1N1C(=O)CS/C1=N\C(=O)NCCCc1ccc(-c2ncn(-c3ccc(OC(F)(F)F)cc3)n2)cc1` [P94, (Z)-1-(3-(2-isopropylphenyl)-4-oxothiazolidin-2-ylidene)-3-(3-(4-(1-(4-(trifluoromethoxy)phenyl)-1H-1,2,4-triazol-3-yl)phenyl)propyl)urea], the pest or weed control at 50 µg/cm2 in test [1] and in test [2] was 50 to 100% in each case.

As for `CCCc1ccc(C)cc1N1C(=O)CS/C1=N\C(=O)NCCCc1ccc(-c2ncn(-c3ccc(OC(F)(F)F)cc3)n2)cc1` [P99, (Z)-1-(3-(5-methyl-2-propylphenyl)-4-oxothiazolidin-2-ylidene)-3-(3-(4-(1-(4-(trifluoromethoxy)phenyl)-1H-1,2,4-triazol-3-yl)phenyl)propyl)urea], the pest or weed control at 50 µg/cm2 in test [1] and in test [2] was 50 to 100% each time.

`CCc1cccc(C)c1N1C(=O)CS/C1=N\C(=O)NCCCc1ccc(-c2ncn(-c3ccc(OC(F)(F)F)cc3)n2)cc1` [P101, (Z)-1-(3-(2-ethyl-6-methylphenyl)-4-oxothiazolidin-2-ylidene)-3-(3-(4-(1-(4-(trifluoromethoxy)phenyl)-1H-1,2,4-triazol-3-yl)phenyl)propyl)urea]: the pest or weed control at 50 µg/cm2 was in the range of 0 to 50% in test [1] and 50 to 100% in test [2].

`Cc1ccc(N2C(=O)CS/C2=N\C(=O)NCCCc2ccc(-c3ncn(-c4ccc(OC(F)(F)F)cc4)n3)cc2)c(C(C)C)c1` [P102, (Z)-1-(3-(2-isopropyl-4-methylphenyl)-4-oxothiazolidin-2-ylidene)-3-(3-(4-(1-(4-(trifluoromethoxy)phenyl)-1H-1,2,4-triazol-3-yl)phenyl)propyl)urea]: the pest or weed control at 50 µg/cm2 in test [1] and in test [2] was 50 to 100% throughout.

With `CC(C)c1cc(F)ccc1N1C(=O)CS/C1=N\C(=O)NCCCc1ccc(-c2ncn(-c3ccc(OC(F)(F)F)cc3)n2)cc1` [P103, (Z)-1-(3-(4-fluoro-2-isopropylphenyl)-4-oxothiazolidin-2-ylidene)-3-(3-(4-(1-(4-(trifluoromethoxy)phenyl)-1H-1,2,4-triazol-3-yl)phenyl)propyl)urea], the pest or weed control at 50 µg/cm2 in test [1] and in test [2] was 50 to 100% throughout.

For the compound `COc1ccc(N2C(=O)CS/C2=N\C(=O)NCCCc2ccc(-c3ncn(-c4ccc(OC(F)(F)F)cc4)n3)cc2)c(C)c1` [P105, (Z)-1-(3-(4-methoxy-2-methylphenyl)-4-oxothiazolidin-2-ylidene)-3-(3-(4-(1-(4-(trifluoromethoxy)phenyl)-1H-1,2,4-triazol-3-yl)phenyl)propyl)urea], the pest or weed control at 50 µg/cm2 in test [1] and in test [2] was 50 to 100% each time.

In the case of `Cc1ccccc1N1C(=O)CS/C1=N\C(=O)NCCCc1cccc(-c2ncn(-c3ccc(OC(F)(F)F)cc3)n2)c1` [P118, (Z)-1-(4-oxo-3-(o-tolyl)thiazolidin-2-ylidene)-3-(3-(3-(1-(4-(trifluoromethoxy)phenyl)-1H-1,2,4-triazol-3-yl)phenyl)propyl)urea], the pest or weed control at 50 µg/cm2 in test [1] and in test [2] was 50 to 100% throughout.

`CCc1ccccc1N1C(=O)CS/C1=N\C(=O)NCCCc1cccc(-c2ncn(-c3ccc(OC(F)(F)F)cc3)n2)c1` [P119, (Z)-1-(3-(2-ethylphenyl)-4-oxothiazolidin-2-ylidene)-3-(3-(3-(1-(4-(trifluoromethoxy)phenyl)-1H-1,2,4-triazol-3-yl)phenyl)propyl)urea]: the pest or weed control at 50 µg/cm2 in test [1] and in test [2] was 50 to 100% each time.

With `CC(C)c1ccccc1N1C(=O)CS/C1=N\C(=O)NCCCc1cccc(-c2ncn(-c3ccc(OC(F)(F)F)cc3)n2)c1` [P120, (Z)-1-(3-(2-isopropylphenyl)-4-oxothiazolidin-2-ylidene)-3-(3-(3-(1-(4-(trifluoromethoxy)phenyl)-1H-1,2,4-triazol-3-yl)phenyl)propyl)urea], the pest or weed control at 50 µg/cm2 in test [1] and in test [2] was 50 to 100% in each case.
